Assay results reported in BindingDB's records for doi:10.1021/jm0100537 (Glaxosmithkline, 2001).
Values belong to the compound of their own block, whether it stands above or below them.

Experiments:
Assay in all cases: Caspase Inhibition Assay
[1] = biological target: T1, Caspase-3 (Homo sapiens, UniProt P42574)
T1 sequence (P42574 whole entry): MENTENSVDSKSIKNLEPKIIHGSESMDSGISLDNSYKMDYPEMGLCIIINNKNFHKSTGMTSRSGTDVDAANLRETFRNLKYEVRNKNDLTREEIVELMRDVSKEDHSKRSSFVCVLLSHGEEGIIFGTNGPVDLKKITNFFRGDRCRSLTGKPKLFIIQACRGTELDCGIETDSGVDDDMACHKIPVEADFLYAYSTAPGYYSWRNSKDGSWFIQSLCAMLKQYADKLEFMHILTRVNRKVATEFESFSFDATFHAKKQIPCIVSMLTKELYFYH

[2] = biological target: T2, Caspase-1 (Homo sapiens, UniProt P29466)
T2 sequence (P29466 whole entry): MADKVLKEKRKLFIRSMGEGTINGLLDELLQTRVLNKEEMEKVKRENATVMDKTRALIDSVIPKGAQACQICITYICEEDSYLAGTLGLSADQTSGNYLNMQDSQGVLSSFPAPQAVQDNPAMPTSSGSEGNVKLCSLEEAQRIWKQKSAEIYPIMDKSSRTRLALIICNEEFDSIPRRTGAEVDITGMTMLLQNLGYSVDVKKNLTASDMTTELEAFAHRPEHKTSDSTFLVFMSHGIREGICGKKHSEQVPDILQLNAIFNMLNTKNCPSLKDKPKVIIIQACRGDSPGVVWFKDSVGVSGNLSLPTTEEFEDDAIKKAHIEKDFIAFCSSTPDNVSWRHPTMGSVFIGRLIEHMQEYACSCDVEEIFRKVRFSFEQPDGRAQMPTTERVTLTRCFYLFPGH

[3] = biological target: T3, Caspase-2 (Homo sapiens, UniProt P42575)
T3 sequence (P42575 whole entry): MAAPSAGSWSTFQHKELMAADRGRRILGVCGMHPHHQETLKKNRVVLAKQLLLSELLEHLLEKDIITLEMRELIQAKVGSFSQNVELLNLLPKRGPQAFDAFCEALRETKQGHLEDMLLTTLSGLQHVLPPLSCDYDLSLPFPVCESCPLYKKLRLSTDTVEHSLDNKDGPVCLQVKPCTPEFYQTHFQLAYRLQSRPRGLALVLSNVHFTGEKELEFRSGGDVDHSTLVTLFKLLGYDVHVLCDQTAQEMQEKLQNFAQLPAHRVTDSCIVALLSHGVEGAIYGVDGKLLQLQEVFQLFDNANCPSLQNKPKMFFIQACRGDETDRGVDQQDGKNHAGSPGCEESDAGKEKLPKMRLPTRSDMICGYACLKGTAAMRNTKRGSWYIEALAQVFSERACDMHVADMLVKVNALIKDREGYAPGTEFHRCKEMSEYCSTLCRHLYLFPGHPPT

[4] = biological target: T4, Caspase-4 (Homo sapiens, UniProt P49662)
T4 sequence (P49662 whole entry): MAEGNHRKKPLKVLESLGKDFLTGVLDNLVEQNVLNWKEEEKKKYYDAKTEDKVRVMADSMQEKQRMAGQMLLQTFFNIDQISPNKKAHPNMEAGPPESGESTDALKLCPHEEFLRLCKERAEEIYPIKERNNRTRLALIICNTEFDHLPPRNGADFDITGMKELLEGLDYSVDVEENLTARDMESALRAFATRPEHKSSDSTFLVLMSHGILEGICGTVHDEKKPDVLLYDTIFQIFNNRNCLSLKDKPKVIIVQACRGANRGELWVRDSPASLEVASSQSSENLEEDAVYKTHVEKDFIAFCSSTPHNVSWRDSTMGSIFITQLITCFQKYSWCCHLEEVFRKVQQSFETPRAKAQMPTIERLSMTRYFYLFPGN

[5] = biological target: T5, Caspase-6 (Homo sapiens, UniProt P55212)
T5 sequence (P55212 whole entry): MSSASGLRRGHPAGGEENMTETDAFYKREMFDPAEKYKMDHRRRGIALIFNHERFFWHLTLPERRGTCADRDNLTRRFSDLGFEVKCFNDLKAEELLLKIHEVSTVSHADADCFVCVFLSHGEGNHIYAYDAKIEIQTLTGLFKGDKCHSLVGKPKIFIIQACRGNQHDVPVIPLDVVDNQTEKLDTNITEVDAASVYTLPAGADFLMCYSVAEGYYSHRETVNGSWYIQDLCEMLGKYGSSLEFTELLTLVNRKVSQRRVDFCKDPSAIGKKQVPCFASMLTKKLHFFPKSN

[6] = biological target: T6, Caspase-7 (Homo sapiens, UniProt P55210)
T6 sequence (P55210 whole entry): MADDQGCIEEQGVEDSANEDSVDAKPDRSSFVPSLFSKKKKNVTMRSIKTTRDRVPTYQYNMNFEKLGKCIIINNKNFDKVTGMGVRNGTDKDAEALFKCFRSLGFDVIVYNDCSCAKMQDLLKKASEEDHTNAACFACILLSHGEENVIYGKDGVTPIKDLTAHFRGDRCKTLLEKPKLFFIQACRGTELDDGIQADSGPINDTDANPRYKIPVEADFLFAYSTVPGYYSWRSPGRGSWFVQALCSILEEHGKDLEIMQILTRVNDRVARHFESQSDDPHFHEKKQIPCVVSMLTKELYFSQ

[7] = biological target: Caspase-8 (Homo sapiens, UniProt Q14790)
Sequence of Caspase-8 (Q14790 217-374 limits assumed): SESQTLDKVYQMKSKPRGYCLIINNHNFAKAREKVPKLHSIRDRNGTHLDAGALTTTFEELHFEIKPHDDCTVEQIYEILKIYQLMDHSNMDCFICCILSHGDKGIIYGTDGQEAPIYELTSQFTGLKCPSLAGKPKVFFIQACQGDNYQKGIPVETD
Sequence of Caspase-8 (Q14790 385-479 limits assumed): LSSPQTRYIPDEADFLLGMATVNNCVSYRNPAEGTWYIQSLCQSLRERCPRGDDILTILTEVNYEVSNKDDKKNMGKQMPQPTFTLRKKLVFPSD

[8] = biological target: T7, Caspase-9 (Homo sapiens, UniProt P55211)
T7 sequence (P55211 whole entry): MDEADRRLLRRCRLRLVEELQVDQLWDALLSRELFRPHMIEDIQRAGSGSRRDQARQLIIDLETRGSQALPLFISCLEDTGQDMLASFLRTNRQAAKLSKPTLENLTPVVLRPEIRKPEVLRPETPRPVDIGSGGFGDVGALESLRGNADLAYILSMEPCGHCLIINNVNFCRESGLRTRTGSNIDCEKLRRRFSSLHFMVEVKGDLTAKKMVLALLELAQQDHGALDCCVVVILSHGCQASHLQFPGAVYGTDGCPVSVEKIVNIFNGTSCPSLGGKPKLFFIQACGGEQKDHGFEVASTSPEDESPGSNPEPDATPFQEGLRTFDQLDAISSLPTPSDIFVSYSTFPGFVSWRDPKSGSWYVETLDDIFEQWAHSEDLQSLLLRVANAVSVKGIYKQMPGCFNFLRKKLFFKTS

- IC50 ([1]; pH 7.5, 30 °C): 3 µM
SMILES: O=C1Nc2ccc([N+](=O)[O-])cc2C1=O [5-nitro-2,3-dihydro-1H-indole-2,3-dione]

- Ki [2]: > 50 µM
- Ki [3]: 11 µM
- IC50 [1]: 5.5 µM
- Ki [1]: 12 µM
- Ki [4]: > 50 µM
- Ki [5]: 57 µM
- Ki [6]: 10 µM
- Ki [7]: > 50 µM
- Ki [8]: > 50 µM
SMILES: O=C1Nc2ccc(S(=O)(=O)N3CCC[C@@H]3CNc3ccccc3)cc2C1=O [5-{[(2R)-2-[(phenylamino)methyl]pyrrolidine-1-]sulfonyl}-2,3-dihydro-1H-indole-2,3-dione]

- IC50 [1]: 0.14 µM
SMILES: O=C1Nc2ccc(S(=O)(=O)N3CCC[C@H]3C(=O)Nc3ccccc3)cc2C1=O [(2S)-1-[(2,3-dioxo-2,3-dihydro-1H-indole-5-)sulfonyl]-N-phenylpyrrolidine-2-carboxamide]

- IC50 [1]: 0.03 µM
SMILES: CN1C(=O)C(=O)c2cc(S(=O)(=O)N3CCC[C@H]3COc3ccccc3)ccc21 [(S)-1-Methyl-5-{1-[2-(phenoxymethyl)pyrrolidinyl]sulfonyl}isatin]
